Results on one molecule are retold here after PMC4317859 (Cancer Science, 2014).

One series concerns the target serum albumin (Homo sapiens, UniProt P02768). The conditions noted are these: cited from earlier work.
The test system of a further series is NCI-N87 (stomach). As to the kind of experiment: Growth inhibition assay. Type of series: cell-based. The conditions noted are these: Homo sapiens, NCI-N87, 72 h, read-out: IC50, growth inhibition of cultured cells.
In a further series the test system is MRC-5 (lung). As to the kind of experiment: Growth inhibition assay. Type of series: cell-based. The note with it: Homo sapiens, MRC5, 72 h, read-out: IC50, growth inhibition of cultured cells.
Another series has as its system MDA-MB-175VII (breast). As to the kind of experiment: Growth inhibition assay. Type of series: cell-based. The note with it: Homo sapiens, 72 h, read-out: IC50, growth inhibition of cultured cells.
The next series deals with Calu-3 (lung). As to the kind of experiment: Growth inhibition assay. The conditions noted are these: Homo sapiens, Calu-3, 72 h, read-out: IC50, growth inhibition of cultured cells. Type of series: cell-based.
The test system of a further series is MDA-MB-453 (breast). As to the kind of experiment: Growth inhibition assay. Type of series: cell-based. The note with it: Homo sapiens, MDA-MB-453, 72 h, read-out: IC50, growth inhibition of cultured cells.
A short description of series [1]: Pharmacokinetics in nude mice. Type of series: in vivo. The note with it: from human plasma AUC and pharmacokinetic parameters in nude mice.
For another series, the system named is BT-474 (breast). The experiment in a line: Growth inhibition assay. It is filed as cell-based. The note with it: Homo sapiens, BT-474, 72 h, read-out: IC50, growth inhibition of cultured cells.
The next series relates to SK-BR-3 (breast). The experiment in a line: Growth inhibition assay. Type of series: cell-based. The conditions noted are these: Homo sapiens, SK-BR-3, 72 h, read-out: IC50, growth inhibition of cultured cells.
Another series relates to NCI-N87 cells. As to the kind of experiment: Growth inhibition in the presence of human serum protein. Type of series: cell-based. The note with it: serum albumin or α1-acid glycoprotein vs standard medium.
In a further series the test system is α1-acid glycoprotein. The note with it: cited from earlier work.
Another series relates to BT-474 cells. As to the kind of experiment: Survival model, intracranial implantation. It is filed as in vivo, mice. The conditions noted are these: 200 mg/kg, oral daily.
For series [2] the following is noted: clinical dose 1200–1250 mg, once daily; cited from earlier work.
Another series concerns HT115 (colon). As to the kind of experiment: Growth inhibition assay. Type of series: cell-based. The note with it: Homo sapiens, HT115, 72 h, read-out: IC50, growth inhibition of cultured cells.

Each structure is given as a SMILES string.

serum albumin, sequence (P02768 25-609): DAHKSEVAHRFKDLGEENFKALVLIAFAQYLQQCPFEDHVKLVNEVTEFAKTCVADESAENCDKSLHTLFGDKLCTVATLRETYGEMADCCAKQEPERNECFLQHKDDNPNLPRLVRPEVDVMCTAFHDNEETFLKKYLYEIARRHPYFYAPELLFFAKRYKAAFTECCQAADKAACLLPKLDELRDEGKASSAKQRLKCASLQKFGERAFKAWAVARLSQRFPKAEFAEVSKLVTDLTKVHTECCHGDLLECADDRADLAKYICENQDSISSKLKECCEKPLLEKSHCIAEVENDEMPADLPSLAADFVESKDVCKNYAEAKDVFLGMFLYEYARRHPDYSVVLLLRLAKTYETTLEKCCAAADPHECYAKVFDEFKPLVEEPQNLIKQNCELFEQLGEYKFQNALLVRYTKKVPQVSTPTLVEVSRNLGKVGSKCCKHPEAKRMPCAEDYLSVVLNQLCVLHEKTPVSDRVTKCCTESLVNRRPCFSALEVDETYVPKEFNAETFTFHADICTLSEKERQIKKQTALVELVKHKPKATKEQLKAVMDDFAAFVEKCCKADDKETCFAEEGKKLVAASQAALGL

Regarding `CS(=O)(=O)CCNCc1ccc(-c2ccc3ncnc(Nc4ccc(OCc5cccc(F)c5)c(Cl)c4)c3c2)o1` [Lapatinib, N-{3-chloro-4-[(3-fluorobenzyl)oxy]phenyl}-6-[5-({[2-(methylsulfonyl)ethyl]amino}methyl)-2-furyl]-4-quinazolinamine], the “Bound to serum albumin” value at serum albumin is given as over 99%. Further, the IC50 in the series with NCI-N87 (stomach) was 0.0364 ± 0.0052 µM; in the series with MRC-5 (lung), 9.14 ± 0.643 µM; in the series on MDA-MB-175VII (breast), 0.0702 ± 0.0102 µM; in the series on Calu-3 (lung), 0.51 ± 0.0858 µM; in the series on MDA-MB-453 (breast), 0.17 ± 0.003 µM; in the series on BT-474 (breast) it was 0.0294 ± 0.0022 µM. For the same molecule, the results for the IC50 in the series with SK-BR-3 (breast) and in the series with HT115 (colon) were 0.0569 ± 0.0054 µM and 0.1 ± 0.0015 µM, respectively. For the same molecule, the “Clinically relevant dose in mice (assumed)” value in series [1] was “approximately 50 mg/kg”. For the same molecule, the “Elevation of IC50 by addition of serum proteins” value in the series on NCI-N87 cells is listed as 10.6–12.7 fold. Further, the “Bound to α1-acid glycoprotein” value in the series with α1-acid glycoprotein was over 99%. In addition, the Survival entry in the series with BT-474 cells is given as “not significant”. Further, the “Human plasma AUC” value in series [2] is 14300 to 36200 ng·h/mL.
